# Measured values: ChEMBL document CHEMBL1201862, “PubChem BioAssay data set” (2004)
# Active and inactive are the calls of the source.
# What was measured:
# Troponin, cardiac muscle = Troponin, cardiac muscle (Homo sapiens, UniProt P19429+P45379+P63316); experiment: Fluorescence-based biochemical high throughput dose response assay for activators of the calcium sensitivity of cardiac Regulated Thin Filaments (RTF). [Related pubchem assays (depositor defined):AID493008, AID493018, AID504382, AID504383]; type: protein-complex assay
# [1] = biological target: DNA dC->dU-editing enzyme APOBEC-3G (Homo sapiens, UniProt Q9HC16); type: functional;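 further: Dose-response counterscreen measuring inhibition of APOBEC3G DNA deaminase activity, run while confirming APOBEC3A inhibitors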
# DNA dC->dU-editing enzyme APOBEC-3G, sequence (Q9HC16 whole entry): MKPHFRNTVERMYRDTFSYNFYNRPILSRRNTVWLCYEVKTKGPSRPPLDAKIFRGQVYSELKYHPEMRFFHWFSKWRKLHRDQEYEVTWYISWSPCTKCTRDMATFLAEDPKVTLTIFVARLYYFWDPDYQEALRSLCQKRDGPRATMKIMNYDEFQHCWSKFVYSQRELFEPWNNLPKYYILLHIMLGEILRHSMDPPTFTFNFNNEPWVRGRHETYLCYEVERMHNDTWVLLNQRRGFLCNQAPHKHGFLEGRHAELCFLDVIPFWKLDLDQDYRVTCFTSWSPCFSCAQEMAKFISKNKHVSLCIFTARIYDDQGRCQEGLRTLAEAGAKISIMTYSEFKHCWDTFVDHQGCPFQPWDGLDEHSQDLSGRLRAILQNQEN
# [2] = biological target: DNA dC->dU-editing enzyme APOBEC-3A (Homo sapiens, UniProt P31941); experiment: Dose Response confirmation of small molecule APOBEC3A DNA Deaminase Inhibitors via a fluorescence-based single-stranded DNA deaminase assay. [Related pubchem assays (depositor defined):AID493011, AID493024]; type: functional
# DNA dC->dU-editing enzyme APOBEC-3A, sequence (P31941 whole entry): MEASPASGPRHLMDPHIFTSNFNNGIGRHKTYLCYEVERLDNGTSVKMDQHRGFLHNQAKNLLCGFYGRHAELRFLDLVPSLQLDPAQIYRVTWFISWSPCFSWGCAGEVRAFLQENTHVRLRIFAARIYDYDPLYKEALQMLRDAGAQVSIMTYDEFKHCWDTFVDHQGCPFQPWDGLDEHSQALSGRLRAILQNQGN
# [3] = biological target: Dual specificity tyrosine-phosphorylation-regulated kinase 1A (Rattus norvegicus, UniProt Q63470); type: biochemical, Homo sapiens
# [4] = cytotoxicity toward NIH3T3 fibroblasts, dose response, counter-screen, cell-based, ATP luminescence, mouse fibroblasts (AID 2010); type: functional;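 further: cells exposed to compound for about 90 hours before reading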
# INS1 = experiment: beta cell apoptosis inhibitors, cytokine rescue, dose response, luminescence, retest (AID 449756); type: functional, cell-based; conditions: Rattus norvegicus;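 further: cell death triggered by IL-1 beta plus TNF-alpha plus IFN-gamma mixture; protective hits raise ATP signal compared with cytokine alone wells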
# [5] = biological target: T1, RNA-binding protein pos-1 (Caenorhabditis elegans, UniProt G5EF15); experiment: inhibitors of POS-1/mex-3 RNA binding, dose response, biochemical, fluorescence polarization (AID 1964);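 further: purified POS-1 fused to maltose binding protein made in E. coli; potency of compounds blocking POS-1 binding to fluorescent RNA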
# T1 sequence (G5EF15 whole entry): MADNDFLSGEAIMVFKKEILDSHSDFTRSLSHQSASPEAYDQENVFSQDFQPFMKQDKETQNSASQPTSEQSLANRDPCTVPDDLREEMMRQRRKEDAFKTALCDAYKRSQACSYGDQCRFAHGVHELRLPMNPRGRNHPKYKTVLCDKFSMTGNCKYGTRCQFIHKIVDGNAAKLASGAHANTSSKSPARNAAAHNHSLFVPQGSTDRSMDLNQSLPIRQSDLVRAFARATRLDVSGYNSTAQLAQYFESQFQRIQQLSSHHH
# [6] = biological target: T2, Endoribonuclease toxin MazF (Escherichia coli K-12, UniProt P0AE70); experiment: fluorescent RNA oligo signal without MazF, dose response, counter-screen for MazEF activator project, biochemical, fluorescence, single-stranded RNase substrate (AID 588502); type: functional
# T2 sequence (P0AE70 whole entry): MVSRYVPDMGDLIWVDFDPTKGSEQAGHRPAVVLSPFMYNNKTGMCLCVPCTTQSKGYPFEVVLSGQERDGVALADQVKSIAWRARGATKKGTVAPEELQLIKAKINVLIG
# [7] = Luminescence Cell-Based Dose Response HTS to Identify Activators of Luciferase Translation or Activity in H4 […] Cells. [Related pubchem assays: 1829 (Project Summary), 1814 (Primary HTS)]; type: functional
# [8] = inhibitors of intracellular T. cruzi replication, confirmation, NIH3T3 host cells, beta-gal luminescence (AID 2044); type: functional, cell-based;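 further: intracellular parasites grown in NIH/3T3 mouse fibroblasts as host cells; luminescent beta-galactosidase reporter signal from transgenic T. cruzi replicating inside host cells; inhibitors lower the luminescence signal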
# [9] = HepG2 cell cytotoxicity, dose response, cytotoxicity control for Shn3 inhibitor project, CellTiter-Glo, cherry-picked (AID 624134); type: functional, cell-based
# [10] = Shn3 3'UTR reporter inhibitors, dose response, cell-based, Clone20 osteoblasts, firefly luciferase, cherry-picked (AID 624132); type: functional;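 further: firefly luciferase luminescence from reporter carrying the Shn3 3'UTR in osteoblasts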
# [11] = NIH-3T3 fibroblast cytotoxicity, dose response, cytotoxicity control, cell-based, fluorescence, Alamar Blue, secondary assay (AID 2327); type: functional;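 further: NIH-3T3 mouse fibroblasts cultured with fluconazole at 8 µg/mL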
# H4 = experiment: Luminescence Cell-Based Dose Response HTS to Identify Activators of 5'UTR Stem-Loop Driven Prion Protein mRNA Translation in H4 Neuroglioblastoma Cells. [Related pubchem assays: 1829 (Project Summary), 1814 (Primary HTS)]; type: functional; conditions: Homo sapiens
# [12] = control 3'UTR Renilla luciferase suppression, dose response, counter-screen for Shn3 inhibitor project, cell-based, Clone20-Shn3RL, cherry-picked (AID 624133); type: functional
# [13] = Luminescence Cell-Based Dose Confirmation HTS to Identify Activators of 5'UTR Stem-Loop Driven Alpha-Synuclein mRNA Translation in H4 Neuroglioblastoma Cells. [Related pubchem assays: 1829 (Project Summary), 1814 (Primary HTS)]; type: functional
# [14] = biological target: T2, Endoribonuclease toxin MazF; experiment: MazF toxin RNase activators, dose response, biochemical, fluorescence, single-stranded RNA substrate, uHTS hits (AID 588481); type: functional
# [15] = C. albicans growth with fluconazole, confirmation, fluorescence, retest (AID 2467); type: functional, cell-based
# [16] = biological target: T3, Zinc finger protein mex-5 (Caenorhabditis elegans, UniProt Q9XUB2); experiment: MEX-5/TCR-2 RNA interaction inhibitors, dose response, biochemical, C. elegans, fluorescence polarization (AID 1960)
# T3 sequence (Q9XUB2 whole entry): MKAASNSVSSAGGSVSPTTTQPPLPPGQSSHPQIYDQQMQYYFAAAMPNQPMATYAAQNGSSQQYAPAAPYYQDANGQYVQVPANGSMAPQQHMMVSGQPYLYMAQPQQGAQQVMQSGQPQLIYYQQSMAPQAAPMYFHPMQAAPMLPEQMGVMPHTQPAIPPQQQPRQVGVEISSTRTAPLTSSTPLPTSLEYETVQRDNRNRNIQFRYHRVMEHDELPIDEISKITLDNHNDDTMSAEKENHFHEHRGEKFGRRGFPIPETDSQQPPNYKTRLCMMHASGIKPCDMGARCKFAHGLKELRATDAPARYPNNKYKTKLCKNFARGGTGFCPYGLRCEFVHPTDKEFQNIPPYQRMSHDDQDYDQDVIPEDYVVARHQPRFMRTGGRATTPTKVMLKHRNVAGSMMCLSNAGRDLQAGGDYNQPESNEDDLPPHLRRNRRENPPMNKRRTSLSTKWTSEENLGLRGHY
# HEK293 = experiment: inhibitors of LMP1-driven NF-kB reporter, dose response, cell-based, HEK293, luciferase, cherry-pick (AID 588343); type: functional; conditions: Homo sapiens
# [17] = biological target: T4, Carboxy-terminal domain RNA polymerase II polypeptide A small phosphatase 1 (Homo sapiens, UniProt Q9GZU7); experiment: inhibitors of CTDSP1, concentration-response testing, biochemical assay, absorbance-based, actives from ultra-high-throughput screening (AID 540297); type: functional
# T4 sequence (Q9GZU7 whole entry): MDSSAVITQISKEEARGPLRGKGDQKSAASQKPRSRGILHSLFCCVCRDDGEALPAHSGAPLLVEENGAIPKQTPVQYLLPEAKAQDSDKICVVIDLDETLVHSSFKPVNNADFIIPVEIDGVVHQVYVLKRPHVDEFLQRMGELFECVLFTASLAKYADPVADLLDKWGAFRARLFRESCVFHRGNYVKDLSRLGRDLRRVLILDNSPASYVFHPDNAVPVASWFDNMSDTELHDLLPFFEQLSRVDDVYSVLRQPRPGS
# [18] = biological target: T5, Heat shock factor protein 1 (Mus musculus, UniProt P38532); experiment: HSF1 potentiators in luciferase reporter cells, confirmation, cell-based, NIH3T3, luminescence, dose retest (AID 435004); type: functional;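 further: stress induced by proteasome inhibitor MG132 added 30 min after compound; luciferase reporter driven by HSF1 response element in NIH3T3 cells; actives raise luminescence as potentiators of the MG132 stress response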
# T5 sequence (P38532 whole entry): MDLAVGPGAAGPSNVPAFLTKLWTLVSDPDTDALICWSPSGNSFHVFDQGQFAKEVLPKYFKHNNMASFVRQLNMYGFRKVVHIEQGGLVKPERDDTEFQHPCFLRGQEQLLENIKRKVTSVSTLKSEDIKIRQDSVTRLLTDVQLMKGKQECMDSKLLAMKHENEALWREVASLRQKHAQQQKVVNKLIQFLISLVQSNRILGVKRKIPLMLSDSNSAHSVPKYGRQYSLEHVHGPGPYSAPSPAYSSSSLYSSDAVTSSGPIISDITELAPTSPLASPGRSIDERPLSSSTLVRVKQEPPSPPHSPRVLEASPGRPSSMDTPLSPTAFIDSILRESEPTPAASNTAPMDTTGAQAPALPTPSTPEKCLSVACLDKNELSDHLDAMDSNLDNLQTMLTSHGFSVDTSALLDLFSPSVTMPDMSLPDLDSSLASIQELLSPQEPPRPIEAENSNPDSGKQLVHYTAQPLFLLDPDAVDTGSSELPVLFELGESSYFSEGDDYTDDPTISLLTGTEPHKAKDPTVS
# [19] = biological target: T6, Ubiquitin-conjugating enzyme E2 N (Homo sapiens, UniProt P61088); type: functional
# T6 sequence (P61088 whole entry): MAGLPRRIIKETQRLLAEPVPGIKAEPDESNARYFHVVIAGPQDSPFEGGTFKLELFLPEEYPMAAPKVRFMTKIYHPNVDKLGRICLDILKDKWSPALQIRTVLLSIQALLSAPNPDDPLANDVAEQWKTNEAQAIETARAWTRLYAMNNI
# Bcl-2-related protein A1 = biological target: T7, Bcl-2-related protein A1 (Mus musculus, UniProt Q07440); type: functional;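 further: confirmatory dose–response counterscreen on Bfl-1, used to check hits from a UBC13 polyubiquitin inhibitor campaign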
# T7 sequence (Q07440 whole entry): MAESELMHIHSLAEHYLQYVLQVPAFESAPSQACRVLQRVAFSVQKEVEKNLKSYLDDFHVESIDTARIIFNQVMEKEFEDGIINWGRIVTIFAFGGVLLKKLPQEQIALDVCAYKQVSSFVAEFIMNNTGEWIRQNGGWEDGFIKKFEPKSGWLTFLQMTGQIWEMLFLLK
# [20] = biological target: T6, Ubiquitin-conjugating enzyme E2 N; type: functional; remark: listed apart in the source
# Vero = Vero cell cytotoxicity, cytotoxicity control for flavivirus capping enzyme inhibitors (AID 588742); type: functional; conditions: Chlorocebus sabaeus
# [21] = inhibitors of Vif binding to APOBEC3G peptide, primary screen, biochemical, TR-FRET, GST-Vif 1-94, biotin-A3G peptide, dose response retest (AID 1117319); type: functional;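 further: TR-FRET signal of purified GST-Vif binding a biotinylated A3G peptide; inhibitors lower the FRET signal by blocking Vif and A3G binding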
compound,measurement,setting,value
CNc1ccccc1C(C)(C)c1cc(C)[nH]n1,EC50,"Troponin, cardiac muscle",> 71.5 µM (inactive)
COc1cc2c(cc1OC)-c1c(OC)c(OC)cc3c1[C@H](C2)[N+](C)(C)CC3 [GLAUCINE METHIODIDE],IC50,[1],1.66 µM (active)
same,IC50,[2],1.85 µM (active)
CCc1nc(Nc2cccc(O)c2)c2oc3ccccc3c2n1,AC50,[3],9.77 µM (active)
CCn1c(/C=C/c2ccc([N+](=O)[O-])o2)nc2ccccc2c1=O,EC50,[4],3.14 µM (active)
same,AC50,INS1,3.43 µM (active)
same,EC50,[5],5.46 µM (inconclusive)
same,EC50,[6],> 99 µM (inactive)
same,EC50,[7],> 60 µM (not active)
same,EC50,[8],0.213 µM (active)
same,AC50,[9],13.6 µM (active)
same,AC50,[10],4.51 µM (active)
same,EC50,[11],7.6 µM (inconclusive)
same,EC50,H4,> 120 µM (not active)
same,AC50,[12],8.48 µM (active)
same,EC50,[13],> 120 µM (not active)
same,EC50,[14],> 99 µM (inactive)
same,EC50,[15],0.682 µM (active)
same,EC50,[16],> 150 µM (inconclusive)
same,AC50,HEK293,10.8 µM (active)
Cc1cc(Cl)nc(N)n1,EC50,"Troponin, cardiac muscle",> 71.4 µM (inactive)
CC(=O)C(=CNc1noc(C)c1Br)C(C)=O,EC50,"Troponin, cardiac muscle",> 71.6 µM (inactive)
COc1ccc2c(c1)c(=O)oc1c(C)c(OCc3cc(C(=O)O)oc3C)ccc12,IC50,[17],9.08 µM (active)
same,AC50,[3],1.51 µM (active)
O=C1NC(=S)S/C1=C/c1ccc(OC(=O)c2ccco2)cc1,EC50,[6],16.4 µM (active)
same,EC50,[18],> 260 µM (inactive)
same,AC50,[3],4.1 µM (active)
same,EC50,[14],> 99 µM (inactive)
COc1cccc(/C=N\NC(=O)c2sc(N)nc2C)c1OC,IC50,[19],0.947 µM (active)
same,IC50,Bcl-2-related protein A1,> 20 µM (inactive)
same,IC50,[20],0.965 µM (active)
O=C(NCc1ccco1)c1cc(-c2cccs2)nc2ccccc12,CC50,Vero,> 40 µM (active)
COc1ccc(S(=O)(=O)N(CCc2ccccc2)CC(=O)NC(C)C)cc1,IC50,[1],5.95 µM (active)
same,IC50,[2],6.35 µM (active)
same,IC50,[21],> 100 µM (active)
NC(=O)NC(CC(=O)NNC(=O)c1ccccn1)c1ccc(Cl)cc1 (stereo not given),IC50,[19],19.6 µM (active)
same,IC50,Bcl-2-related protein A1,> 20 µM (inactive)
same,IC50,[20],12.4 µM (active)
CCCCN1C(=O)NC(=O)/C(=C/c2c[nH]c3ccccc23)C1=O,EC50,[5],28.4 µM (inconclusive)
same,EC50,[6],> 99 µM (inactive)
same,EC50,[14],> 99 µM (inactive)
same,EC50,[16],29.9 µM (active)
O=C(CSCc1ccc([N+](=O)[O-])cc1)N[N-][C+]1CCCCCC1,IC50,[19],5.71 µM (active)
same,IC50,Bcl-2-related protein A1,> 20 µM (inactive)
same,IC50,[20],13.7 µM (active)
